Key:
[1] = system: Rat dopaminergic neurons; assay: Dopaminergic neuron survival with MPP+ intoxication; type: cell-based; settings: MPP+ 16 μM, 48 hours
Protocol: Rat dopaminergic neurons were cultured as described by Schinelli et al., 1988. Briefly pregnant female rats of 15 days gestation were killed by cervical dislocation (Rats Wistar; Janvier) and the fetuses removed from the uterus. The embryonic midbrains were removed and placed in ice-cold medium of Leibovitz (L15; Invitrogen) containing 1% of Penicillin-Streptomycin (PS; Invitrogen) and 1% of bovine serum albumin (BSA; Sigma). Only the ventral portions of the mesencephalic flexure were used for the cell preparations as this is the region of the developing brain rich in dopaminergic neurons.
The midbrains were dissociated by trypsinisation for 20 min at 37° C. (10% of trypsin EDTA 10×; Invitrogen) diluted in PBS without calcium and magnesium. The reaction was stopped by the addition of Dulbecco's modified Eagle's medium (DMEM; Invitrogen) containing DNAase I grade II (0.1 mg/ml; Roche Diagnostic;) and 10% of fetal calf serum (FCS; Invitrogen). Cells were then mechanically dissociated by 3 passages through a 10 ml pipette. Cells were then centrifuged at 180×g for 10 min at room temperature on a layer of BSA (3.5%) in L15 medium. The supernatant was discarded and the cells of pellet were re-suspended in a defined culture medium consisting of Neurobasal (Invitrogen) supplemented with B27 (2%; Invitrogen), L-glutamine (0.2 mM; Invitrogen) and 1% of PS solution. Viable cells were counted in a Neubauer cytometer using the trypan blue exclusion test.
The cells were seeded at a density of 69 000 cells/well in 96 well-plates (wells were pre-coated with poly-L-lysine (10 μg/ml; Sigma)) and were cultured at 37° C. in a humidified air (95%)/CO2 (5%) atmosphere. Half of the medium was changed every 2 days with fresh medium. In these conditions, after 5 days of culture, astrocytes were present in the culture and release growth factor allowing neurons differentiation. Three to five percent of the neuronal cell population were dopaminergic neurons.
On day 6, the medium was removed and fresh medium was added with or without MPP^+ at 16 μM and with or without test substance. After 48 hours of intoxication (day 8 of culture), the cells were fixed with PFA 4%. Dopaminergic neurons were labeled by a monoclonal anti-tyrosine hydroxylase (TH) antibody (Sigma). This antibody labels the neurites and cell bodies of dopaminergic neurons. […] For each condition, 2×10 pictures per well were taken using InCell Analyzer™ 1000 (Amersham Biosciences) with 10× magnification. All the images were taken in the same conditions.
Analysis of the neurite length and number of neurons labeled with anti tyrosine hydroxylase (TH) antibodies with or without MPP+ intoxication was carried out using InCell Analyzer™ 1000 3.2.Workstation software. Dopaminergic neurons and total length neurites were counted on the 10 pictures (12 analyses by culture condition).

[2] = target: T1, RET via GFRα (UniProt P07949+Q62997); assay: RET phosphorylation assay by immunoprecipitation and Western blotting (FIG. 4); type: cell-based; settings: FIG. 4 lanes; active / inactive
T1 construct: Full-length flag-tagged rat Gfrα1 cDNA; FLAG; expressed in transfected cells; host or cells: αLUC cells: MG87RET murine fibroblasts stably transfected with GFRα1 plasmid, Gal4-Luc and Gal4-Elk
T1 sequence (Q62997 25-430 limits assumed): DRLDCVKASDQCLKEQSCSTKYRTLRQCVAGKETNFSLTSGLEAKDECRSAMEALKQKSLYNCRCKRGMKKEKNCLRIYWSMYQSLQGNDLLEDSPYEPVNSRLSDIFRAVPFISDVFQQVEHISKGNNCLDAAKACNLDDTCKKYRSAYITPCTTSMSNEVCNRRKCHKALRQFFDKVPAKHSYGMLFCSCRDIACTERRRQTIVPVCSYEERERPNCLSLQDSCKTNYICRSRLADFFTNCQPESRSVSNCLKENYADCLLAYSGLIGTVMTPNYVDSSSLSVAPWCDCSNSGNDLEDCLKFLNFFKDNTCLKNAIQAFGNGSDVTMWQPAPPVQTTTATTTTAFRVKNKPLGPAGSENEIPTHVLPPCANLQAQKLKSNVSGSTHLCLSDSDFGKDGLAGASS
T1 sequence (P07949 29-1114): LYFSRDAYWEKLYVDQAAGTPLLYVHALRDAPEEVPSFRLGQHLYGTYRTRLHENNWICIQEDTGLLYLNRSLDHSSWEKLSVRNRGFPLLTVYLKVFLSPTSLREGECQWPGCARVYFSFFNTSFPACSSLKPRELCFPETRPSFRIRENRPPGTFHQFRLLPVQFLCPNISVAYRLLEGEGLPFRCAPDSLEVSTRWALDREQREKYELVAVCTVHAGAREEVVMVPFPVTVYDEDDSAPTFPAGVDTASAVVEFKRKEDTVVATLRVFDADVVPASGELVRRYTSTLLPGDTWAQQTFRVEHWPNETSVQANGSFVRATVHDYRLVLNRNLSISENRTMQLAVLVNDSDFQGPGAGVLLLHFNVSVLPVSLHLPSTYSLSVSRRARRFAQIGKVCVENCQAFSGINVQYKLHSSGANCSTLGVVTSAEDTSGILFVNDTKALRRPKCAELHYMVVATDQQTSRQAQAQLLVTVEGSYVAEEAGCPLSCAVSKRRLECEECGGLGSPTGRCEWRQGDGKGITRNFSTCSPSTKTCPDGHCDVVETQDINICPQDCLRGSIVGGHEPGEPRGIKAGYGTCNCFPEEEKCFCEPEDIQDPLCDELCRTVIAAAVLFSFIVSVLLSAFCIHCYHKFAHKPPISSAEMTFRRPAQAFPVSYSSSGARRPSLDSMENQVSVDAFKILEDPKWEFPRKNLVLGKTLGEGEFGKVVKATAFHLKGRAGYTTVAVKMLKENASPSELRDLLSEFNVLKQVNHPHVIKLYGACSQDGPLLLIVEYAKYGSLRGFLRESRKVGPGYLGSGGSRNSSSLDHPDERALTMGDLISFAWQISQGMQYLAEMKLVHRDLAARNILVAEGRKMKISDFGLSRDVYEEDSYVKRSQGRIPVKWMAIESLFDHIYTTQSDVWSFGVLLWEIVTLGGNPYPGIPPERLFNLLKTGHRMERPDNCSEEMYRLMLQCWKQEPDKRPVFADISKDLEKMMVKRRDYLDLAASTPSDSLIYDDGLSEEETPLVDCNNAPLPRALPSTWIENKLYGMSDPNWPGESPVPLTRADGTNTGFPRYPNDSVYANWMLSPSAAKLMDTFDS
Protocol: αLUC and NOα cells plated on 35 mm tissue culture dishes were starved for 4 hours in serum-free DMEM and stimulated with 500 ng/ml of PSPN or 100 ng/ml of GDNF (positive control) for 15 min. […] The membranes were washed 3 times for 5 min in TBS-T and incubated in the 1:3000 solution of secondary anti-mouse antibodies conjugated with HRP (DAKO) diluted in TBS-T containing 3% nonfat dry milk for 45 min at room temperature. Membranes were washed with TBS-T for 5×10 min. Stained bands were visualized with ECL reagent (Pierce) using LAS3000 imaging program. […] We used secondary anti-goat antibodies conjugated with HRP (1:1500, DAKO) to detect C-20.

[3] = system: 6-OHDA-treated rats; assay: Side effects / toxic effects after intrastriatal injection in 6-OHDA-treated rats; type: in vivo; settings: injected intrastriatally
Protocol: (§1) GDNF mimetics compounds, GDNF or vehicle is administered to the striatum at 3 weeks after the exposure to the neurotoxin 6-OHDA. The selective damage to dopaminergic neurons in the SNc, as well as striatal levels of dopamine and its metabolites are evaluated 12 weeks after the injection of 6-OHDA with tyrosine hydroxylase (TH) immunohistochemistry and HPLC, respectively. In addition, the behavioral impairment of rats is evaluated by forelimb asymmetry test (cylinder test), amphetamine induced rotation asymmetry test and Y-maze test for stereotypic spontaneous rotation deficits.
(§2) On day 21, rats are re-anesthetized with 5% isoflurane (in 70% N2O and 30% O2; flow 300 ml/min) and placed in a stereotactic frame. During the operation concentration of anesthetic is reduced to 1-1.5%. The rectal temperature is maintained at 37.0±1.0° C. with a homeothermic blanket system. The right brain hemisphere is exposed through a small craniectomy to the skull. A stereotaxic injection of the test compound, GDNF or vehicle is made into the right striatum. Each dosing solution is infused at a speed of 1 μl/min and is equally distributed between 4 sites at the following coordinates: AP+1.0, ML+2.8, DV−6.0, −5.5, −5.0 and −4.4 mm. The cannula is left in place for another 5 min before being withdrawn. The hole in the skull is subsequently filled with repair material and the skin is closed and disinfected. The rats are allowed to recover from anesthesia and are carefully monitored for possible post surgical complications. The animals are returned to the home cages with ad libitum access to food and water.
Animals are monitored daily by laboratory personnel. […] Definitions of acceptable endpoints include: no spontaneous movements and inability to drink or eat in 24-h observation period, massive bleeding, spontaneous inflammation, missing anatomy, swelling or tumors larger than 20 mm, and inability to right itself in 30 sec period.

[4] = system: 6-OHDA lesioned rats; assay: Amphetamine induced rotation asymmetry in 6-OHDA rat model of Parkinson's disease (FIG. 7); type: in vivo
Source text: The objective of this study is to investigate the effect of intrastriatally (i.s.) administered small molecule GDNF mimetics (compounds 13, 16, 319H6 and 292651, structures shown in the description of the Figures, above) in a rat model 6-OHDA of Parkinson's disease. In the sub-acute lesion model used in this study, the lesion of the substantia nigra (SNc) that slowly progresses over weeks is created by injection of 6-OHDA into the proximity of the dopaminergic terminals in the striatum (Kirik-D 1998, Exp. Neurol. 152:259-277). In this model, a portion of the nigrostriatal projection is left intact, which can serve as a substrate for regeneration and functional recovery in response to growth promoting and neuroprotective agents.
as §1
Animals: All animal experiments are carried out according to the National Institute of Health (NIH) guidelines for the care and use of laboratory animals, and approved by the State Provincial Office of Southern Finland. Altogether 108 male Wistar rats, purchased from Charles River, Germany and weighing 220-275 g are used for the experiment. Animals are housed at a standard temperature (22±1° C.) and in a light-controlled environment (lights on from 7 am to 8 pm) with ad libitum access to food and water. Animals are grouped as follows:
as §2, with “In order to generate partial retrograde degeneration into the SNc, 6-OHDA lesioning is carried out according to Sauer and Oertel with modifications (Sauer and Oertel, 1994). Male Wistar rats” for “On day 21, rats”, “are anesthetized” for “are re-anesthetized”, “skull. The dura mater is carefully removed with fine forceps and a” for “skull. A”, “of 6-OHDA (4 μg/μl)” for “of the test compound, GDNF or vehicle”, “striatum. A total of 7 μl of 6-OHDA” for “striatum. Each dosing solution”, “of 0.5” for “of 1”
as §2, with “The rats are allowed to recover from anesthesia and are carefully monitored for possible post surgical complications. The animals are returned to the home cages with ad libitum access to food and water.” left out

## CCN(CC)S(=O)(=O)c1ccc(OC)c(N2CCN(C(=O)c3ccc(F)cc3C(F)(F)F)CC2)c1 [319H6]
[1]; 0.1 μM
  % Cytoprotection vs controls: 9%
  % TH+ Neurons: 59%
[1]; 1 μM
  % Cytoprotection vs controls: 33%
  % TH+ Neurons: 70%
[1]; 10 μM
  % Cytoprotection vs controls: 36%
  % TH+ Neurons: 71%

## CCN(CC)CCCC(C)Nc1ccnc2cc(Cl)ccc12 (stereo not drawn) [chloroquine]
[2]
  RET activation (phosphotyrosine Western blot of immunoprecipitated RET): inactive

## CCN(CC)CCCCCCNc1ccnc2cc(Cl)ccc12 [compound 108]
[2]
  RET activation (phosphotyrosine Western blot of immunoprecipitated RET): inactive

## OCCNCCNc1c2ccccc2nc2cc(Cl)ccc12 [compound 13005]
[2]
  RET activation (phosphotyrosine Western blot of immunoprecipitated RET): inactive

## CC(CCCN(C)Cc1ccccc1)Nc1ccnc2cc(Cl)ccc12 (stereo not drawn) [compound 143511]
[2]
  RET activation (phosphotyrosine Western blot of immunoprecipitated RET): active

## CCN(CC)CCCC(C)Nc1cc(/C=C/c2ccc(Cl)cc2)nc2ccc(N(C)C)cc12 (stereo not drawn) [compound 219902]
[2]
  RET activation (phosphotyrosine Western blot of immunoprecipitated RET): active

## CCN(CC)CCCC(C)Nc1cc(/C=C/c2ccc(Cl)cc2)nc2cc(N(C)C)ccc12 (stereo not drawn) [compound 292651]
[2]
  RET activation (phosphotyrosine Western blot of immunoprecipitated RET): active
[3]
  toxic effects in behavioral assays: did not cause toxic effects
[4]; 1 ug intrastriatal, 3 weeks after 6-OHDA, measured 6 weeks after 6-OHDA
  amphetamine-induced ipsilateral rotation: reduced amphetamine-induced ipsilateral rotation
[4]; injected into striatum 3 weeks after 6-OHDA, dose not stated
  amphetamine-induced ipsilateral rotation of lesioned rats: significantly reduce

## Clc1ccc2c(NCCCCCCNc3ccnc4cc(Cl)ccc34)ccnc2c1 [compound 349051]
[2]
  RET activation (phosphotyrosine Western blot of immunoprecipitated RET): inactive

B1: BDNF: native brain-derived neurotrophic factor, comparator in the neuron survival assay (protein, UniProt P23560 19-247, looked up)
Neurotrophic factor BDNF …: APMKEANIRGQGGLAYPGVRTHGTLESVNGPKAGSRGLTSLADTFEHVIEELLDEDQKVRPNEENNKDADLYTSRVMLSSQVPLEPPLLFLLEEYKNYLDAANMSMRVRRHSDPARRGELSVCDSISEWVTAADKKTAVDMSGGTVTVLEKVPVSKGQLKQYFYETKCNPMGYTKEGCRGIDKRHWNSQCRTTQSYVRALTMDSKKRIGWRFIRIDTSCVCTLTIKRGR
[1]; 10 ng/mL
  % Cytoprotection vs controls: 49%
  % TH+ Neurons: 77%
